Ends that are not written are not given here.

The test system of this data set is rat spontaneous urination. Briefly: Rat spontaneous urination test (metabolism cage, 7 days ingestion from drinking). The format is in vivo. The conditions noted are these: aqueous 0.1 mg/mL LNDP solution from drinking for 7 days. How it is done:
It was confirmed from Test Example 2 that LNDP promotes the efferent hypogastric nerve activity, and it was confirmed from Test Example 3 that LNDP inhibits the efferent the pelvic splanchnic nerve activity. Influence on the bladder, which is one of the internal organs dominated by these nerves, was therefore investigated.
Male Wistar rats which are 13 weeks old were received, and quarantined and acclimated in a thermostat animal room at 18 to 28° C. in a cycle including a 12-hour light period and a 12-hour dark period for 1 week, and ten 14- to 16-week-old rats per group were tested. An aqueous 0.1 mg/mL LNDP solution or water was ingested from drinking for 7 days, and the urination amount was measured as weight with an electronic balance installed under a urine-collecting opening in raising with a metabolism cage. The weight data of the electronic balance every minute were automatically inputted into a computer. […] The total urination amount and the frequency of urination per day were found, and the urine amount per one time of urination (=the total urination amount per day/the frequency of urination per day) was calculated as to an individual of each group. […] As to the comparison of the test substance and ingestion days with respect to each measured value, two-way analysis of variance (two-way ANOVA) with replication was performed.

As for “NIPPLTQTPVVVPPFLQPE [LNDP, Asn-Ile-Pro-Pro-Leu-Thr-Gln-Thr-Pro-Val-Val-Val-Pro-Pro-Phe-Leu-Gln-Pro-Glu]”, the “significant difference in change in body weight vs water ingestion group” value is “not observed” and the “significant difference in general symptoms vs water ingestion group” value is given as “not observed”.

The record behind these values is patent publication US20210401928A1, “ANTI-OBESITY AGENT, POLLAKIURIA IMPROVING AGENT, AND AUTONOMIC NERVOUS ACTIVITY REGULATOR” (ASAHI GROUP HOLDINGS, LTD., priority 2018, published 2021).
